Experimental data reported in patent US6184238A, “N-hydroxyurea derivative and pharmaceutical composition containing the same” (Nikken Chemicals Co., Ltd., priority 1996, dated 2001).
Where two headings read alike, the source gives them in different places.

How the values were obtained:
[1] = molecular target: T1, Lipoxygenase (Rattus norvegicus, UniProt P12527); assay: Lipoxygenase inhibitory activity (leukotriene B4 production, rat polymorphonuclear leukocytes); assay type: cell-based
T1 construct: Using rat polymorphonuclear leukocytes; endogenous in cells; host or cells: casein-elicited peritoneal polymorphonuclear leukocytes of male Wistar rats
T1 sequence (P12527 1-673): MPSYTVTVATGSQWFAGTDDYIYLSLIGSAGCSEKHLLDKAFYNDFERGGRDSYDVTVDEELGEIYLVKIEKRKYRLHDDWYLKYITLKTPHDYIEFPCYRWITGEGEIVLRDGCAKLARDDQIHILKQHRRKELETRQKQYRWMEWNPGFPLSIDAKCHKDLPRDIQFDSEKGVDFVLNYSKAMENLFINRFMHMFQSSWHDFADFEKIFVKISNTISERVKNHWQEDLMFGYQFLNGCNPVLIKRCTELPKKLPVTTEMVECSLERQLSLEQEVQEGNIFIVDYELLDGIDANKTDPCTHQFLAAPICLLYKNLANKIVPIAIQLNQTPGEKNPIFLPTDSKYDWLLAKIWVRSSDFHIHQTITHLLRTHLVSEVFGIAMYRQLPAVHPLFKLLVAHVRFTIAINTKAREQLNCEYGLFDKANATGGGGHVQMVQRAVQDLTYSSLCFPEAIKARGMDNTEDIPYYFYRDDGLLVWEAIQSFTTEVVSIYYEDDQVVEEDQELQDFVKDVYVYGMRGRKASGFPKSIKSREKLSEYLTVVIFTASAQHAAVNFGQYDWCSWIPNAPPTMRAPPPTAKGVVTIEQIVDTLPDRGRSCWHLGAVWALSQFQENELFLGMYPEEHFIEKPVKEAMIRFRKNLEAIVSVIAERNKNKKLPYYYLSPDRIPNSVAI
Experimental: (Test of Lipoxygenase Inhibitory Activity)
Using rat polymorphonuclear leukocytes, a test was conducted using as an indicator the amount of production of leukotriene B4. Wistar male rats (Japan Clea) were intraperitoneally administered with 12% sodium casein. After 16 hours, the peritoneal cavities were lavaged and the polymorphonuclear leukocytes were recovered. The polymorphonuclear leukocytes thus obtained were suspended in a phosphate buffer (137 mM NaCl, 3 mM KCl, 8 mM Na2 HPO4, 2 mM KH2 PO4) (2.5×10^5 cells/0.4 ml), then the test compound (final concentration 10^-5 M) was added and incubation performed for 10 minutes at 37° C. then a calcium solution (10 mM CaCl2, 0.86% NaCl) 0.1 ml was added and incubation performed for 5 minutes, then 1.25 μl of calcium ionophore (20 μm, A-23187) was added and the reaction started. Five minutes after the addition, 250 μl of methanol was added to stop the reaction. After the reaction was stopped, the result was centrifuged for 20 minutes (4° C., 3000 rpm), then the amount of leukotriene B4 in the supernatant was measured by the EIA method (Cayman Co. kit).
As the test compound, the same compounds as in Test Example 1 were used for the test.

[2] = molecular target: T2, Thromboxane synthase (Homo sapiens, UniProt P24557); assay: Thromboxane synthase inhibitory activity (thromboxane B2 production, human platelet microsomes); assay type: biochemical; details: prostaglandin H2 added, pH 7.5, read-out: TxSI IC50 (inhibition of thromboxane B2 production)
T2 construct: Human platelet microsomes were used; from tissue; host or cells: human platelet microsomes
T2 sequence (P24557 1-533): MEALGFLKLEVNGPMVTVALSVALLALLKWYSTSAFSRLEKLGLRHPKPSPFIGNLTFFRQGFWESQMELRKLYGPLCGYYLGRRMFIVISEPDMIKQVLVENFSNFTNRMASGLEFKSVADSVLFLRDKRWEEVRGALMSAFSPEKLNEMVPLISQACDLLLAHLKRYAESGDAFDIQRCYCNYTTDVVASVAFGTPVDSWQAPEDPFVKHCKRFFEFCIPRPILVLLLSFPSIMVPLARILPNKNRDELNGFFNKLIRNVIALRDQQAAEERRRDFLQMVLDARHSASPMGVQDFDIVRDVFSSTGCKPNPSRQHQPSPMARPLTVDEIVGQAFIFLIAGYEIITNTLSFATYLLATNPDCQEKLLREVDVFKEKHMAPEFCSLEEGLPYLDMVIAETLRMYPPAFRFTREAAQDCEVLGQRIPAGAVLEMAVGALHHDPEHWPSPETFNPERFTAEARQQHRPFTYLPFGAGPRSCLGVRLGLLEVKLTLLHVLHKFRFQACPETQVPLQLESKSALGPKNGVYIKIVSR
Experimental: (Test of Thromboxane synthase Inhibitory Activity)
Human platelet microsomes were used and a test performed using as an indicator the amount of production of the thromboxane A2 stable metabolite thromboxane B2. A buffer solution (20 mM tris-HCl buffer solution, 1 mM EDTA, pH 7.5) containing human platelet microsomes (50 μg protein/ ml) and the test compound (final concentration of 10^-6 M) was stirred, then incubated at 0° C. for 30 minutes, followed by adding prostaglandin H2 (100 ng/2 μl). This was made acidic to stop the reaction, then neutralized with 1M Tris-base, then centrifuged at 3000 rpm for 20 minutes. The amount of the thromboxane B2 in the supernatant was measured by the EIA method (Cayman Co. kit).
As the test compound, the compounds 1, 6, 10, 11, 18 to 21, 24 to 27, 35, 40, 41, 44, and 45 were used for the test.

[3] = system: Crj-ICR male mice; assay: Acute toxicity test; assay type: in vivo, mouse; details: intraperitoneal, dosages of up to 1000 mg/kg, 7 days observation
Experimental: Crj-ICR male mice (7 weeks old, five mice to a group) were used. The test compound (Compounds 9, 26, and 33) was suspended in 0.5% sodium carboxymethylcellulose and administered intraperitoneally at a ratio of 10 ml/kg. The survival of the animals was observed up until 7 days after administration.

[4] = system: Antigen-Induced Bronchoconstriction Model of Guinea Pig; assay: Antigen-induced bronchoconstriction model of guinea pig (Konzett-Rossler method); assay type: in vivo; details: Cavia porcellus, 1 h; guinea pigs sensitized by ovalbumin; oral; one hour after administration; read-out: Suppression of respiratory constriction (ED50)
Experimental: (Pharmacological Activity on Antigen-Induced Bronchoconstriction Model of Guinea Pig)
Guinea pigs sensitized by ovalbumin were used and orally administered with the test compound suspended in 5% gum arabic. The activity for inhibiting antigen-induced bronchoconstriction after one hour after administration was measured by the Konzett-Rossler method.
Each of the sensitized guinea pigs was anesthesized by 35 mg/kg pentobarbital, a cannula was inserted into the respiratory tract and connected to an artificial respirator, a cannula was inserted into the jugular vein, and treatment was performed by 5 mg/kg suxamethonium and […] mepyramine. Next, the guinea pig was inhaled a nebulized ovalbumin to cause bronchoconstriction and the activity in inhibiting bronchoconstriction was found from the ratio of the amount of overflow volume to the detector to the amount of air blown volume from the artificial respirator.
As the test compound, the Compounds 19, 26, and 33 were used. As the control, the thromboxane synthase inhibitor OKY-046 and the 5-lipoxygenaseinhibitor A-64077 were used.

[5] = rat polymorphonuclear leukocytes, calcium ionophore A-23187, 37° C., read-out: LTBI IC50 (inhibition of leukotriene B4 production)

Row | SMILES | IC50 [1, 5] [nM] | IC50 [2] [nM] | Deaths (acute toxicity) [3] | ED50 [4] [mg/kg] | IC50 [1] [nM]
1 | NC(=O)N(O)CCCCCCCCCCCCn1c(-c2cccnc2)cc2ccccc21 [Compound 1, N-Hydroxy-N-[12-[1-[2-(3-pyridyl)indolyl]]dodecyl]urea] | 6 | 3 |  |  | 
2 | NC(=O)N(O)CCCCCCCCn1c(-c2cccnc2)cc2ccccc21 [Compound 6, N-Hydroxy-N-[8-[1-[2-(3-pyridyl)indolyl]]octyl]urea] | 10 | 0.7 |  |  | 
3 | NC(=O)N(O)CCCCCCn1c(-c2cccnc2)c(Cl)c2cc(Cl)ccc21 [Compound 9, N-[6-[1-[3,5-dichloro-2-(3-pyridyl)indolyl]]hexyl]-N-hydroxyurea] |  |  | no deaths |  | 
4 | Cc1c(-c2cccnc2)n(CCCCCCN(O)C(N)=O)c2ccc(Cl)cc12 [Compound 10, N-[6-[1-[5-Chloro-3-methyl-2-(3-pyridyl)indolyl]]hexyl]-N-hydroxyurea] | 30 | 0.7 |  |  | 
5 | NC(=O)N(O)CCCCCCCCCCn1c(-c2cccnc2)cc2ccccc21 [Compound 11, N-hydroxy-N-[10-[1-[2-(3-pyridyl)indolyl]]decyl]urea] | 9 | 0.8 |  |  | 
6 | NC(=O)N(O)CCCCCCn1cc(Cc2cccnc2)c2ccccc21 [Compound 18, N-Hydroxy-N-[6-[1-[3-(3-pyridylmethyl)indolyl]]hexyl]urea] | 100 | 300 |  |  | 
7 | NC(=O)N(O)CCn1cc(-c2cccnc2)c2ccccc21 [Compound 19, N-Hydroxy-N-[2-[1-[3-(3-pyridyl)indolyl]]ethyl]urea] | 300 | 15 |  | 30 | 
8 | Cc1c(-c2cccnc2)c2ccccc2n1CCN(O)C(N)=O [Compound 20, N-Hydroxy-N-[2-[1-[2-methyl-3-(3-pyridyl)indolyl]]ethyl]urea] | 1500 | 5 |  |  | 
9 | NC(=O)N(O)CCCCCCn1cc(-c2cccnc2)c2ccccc21 [Compound 21, N-Hydroxy-N-[6-[1-[3-(3-pyridyl)indolyl]]hexyl]urea] | 40 | 15 |  |  | 
10 | Cn1c(-c2cccnc2)c(C=CCN(O)C(N)=O)c2ccccc21 [Compound 24, N-Hydroxy-N-[3-[3-[1-methyl-2-(3-pyridyl)indolyl]]-2-propenyl]urea] | 4000 | 40 |  |  | 
11 | NC(=O)N(O)CC=Cc1cn(Cc2cccnc2)c2ccccc12 [Compound 25, N-hydroxy-N-[3-[3-[1-(3-pyridylmethyl)indolyl]]-2-propenyl]urea] | 200 | 150 |  |  | 
12 | NC(=O)N(O)Cc1cn(Cc2cccnc2)c2ccccc12 [Compound 26, N-Hydroxy-N-[3-[1-(3-pyridylmethyl)indolyl]methyl]urea] |  | 700 |  | 75 | 3000
13 | NC(=O)N(O)Cc1ccc(Cc2cn(Cc3cccnc3)c3ccccc23)cc1 [Compound 27, N-Hydroxy-N-[4-[3-[1-(3-pyridylmethyl)indolyl]]methylbenzyl]urea] | 100 | 70 |  |  | 
14 | NC(=O)N(O)Cc1ccc2c(ccn2Cc2cccnc2)c1 [Compound 33, N-hydroxy-N-[5-[1-(3-pyridylmethyl)indolyl]methyl]urea] |  |  |  | 30 | 
15 | Cc1c(-c2cccnc2)n(C)c2ccc(CN(O)C(N)=O)cc12 [Compound 35, N-[5-[1,3-Dimethyl-2-(3-pyridyl)indolyl]methyl]-N-hydroxyurea] | 2000 | 40 |  |  | 
16 | Cn1cc(-c2cccnc2)c2cc(CN(O)C(N)=O)ccc21 [Compound 40, N-Hydroxy-N-[5-[1-methyl-3-(3-pyridyl)indolyl]methyl]urea] | 700 | 30 |  |  | 
17 | Cc1c(-c2cccnc2)n(C)c2ccc(C(C)N(O)C(N)=O)cc12 (stereo not shown) [Compound 41, N-[1-[5-[1,3-Dimethyl-2-(3-pyridyl)indolyl]]ethyl]-N-hydroxyurea] | 2000 | 70 |  |  | 
18 | Cc1c(-c2cccnc2)n(C)c2ccc(C#CC(C)N(O)C(N)=O)cc12 (stereo not shown) [Compound 44, N-[2-[4-[5-[1,3-dimethyl-2-(3-pyridyl)indolyl]]-3-butynyl]]-N-hydroxyurea] | 600 | 30 |  |  | 
19 | CC(c1ccc2c(c1)c(-c1cccnc1)cn2C)N(O)C(N)=O (stereo not shown) [Compound 45, N-Hydroxy-N-[1-[5-[1-methyl-3-(3-pyridyl)indolyl]]ethyl]urea] | 2500 | 60 |  |  | 
20 | CC(c1cc2ccccc2s1)N(O)C(N)=O (stereo not shown) [Compound A-64077, reference compound] |  |  |  | 300 | 
21 | O=C(O)/C=C/c1ccc(Cn2ccnc2)cc1 [OKY-046, reference compound] |  |  |  | 260 | 
